From paper PMC4624270 (Journal of the American Chemical Society, 2015) come the findings set out here.

The assay has as its target PikDH2 (PikKR2-DH2 didomain) (Streptomyces venezuelae, UniProt Q9ZGI5). Put plainly: time-dependent inactivation, Kitz-Wilson plot. In kind it is biochemical. The note with it: read-out: KI; covalent; mechanism-based irreversible inhibitor; substrate 2a; 10 to 40 μM inhibitor.

Chain of PikDH2 (PikKR2-DH2 didomain) (Q9ZGI5 3579-4365): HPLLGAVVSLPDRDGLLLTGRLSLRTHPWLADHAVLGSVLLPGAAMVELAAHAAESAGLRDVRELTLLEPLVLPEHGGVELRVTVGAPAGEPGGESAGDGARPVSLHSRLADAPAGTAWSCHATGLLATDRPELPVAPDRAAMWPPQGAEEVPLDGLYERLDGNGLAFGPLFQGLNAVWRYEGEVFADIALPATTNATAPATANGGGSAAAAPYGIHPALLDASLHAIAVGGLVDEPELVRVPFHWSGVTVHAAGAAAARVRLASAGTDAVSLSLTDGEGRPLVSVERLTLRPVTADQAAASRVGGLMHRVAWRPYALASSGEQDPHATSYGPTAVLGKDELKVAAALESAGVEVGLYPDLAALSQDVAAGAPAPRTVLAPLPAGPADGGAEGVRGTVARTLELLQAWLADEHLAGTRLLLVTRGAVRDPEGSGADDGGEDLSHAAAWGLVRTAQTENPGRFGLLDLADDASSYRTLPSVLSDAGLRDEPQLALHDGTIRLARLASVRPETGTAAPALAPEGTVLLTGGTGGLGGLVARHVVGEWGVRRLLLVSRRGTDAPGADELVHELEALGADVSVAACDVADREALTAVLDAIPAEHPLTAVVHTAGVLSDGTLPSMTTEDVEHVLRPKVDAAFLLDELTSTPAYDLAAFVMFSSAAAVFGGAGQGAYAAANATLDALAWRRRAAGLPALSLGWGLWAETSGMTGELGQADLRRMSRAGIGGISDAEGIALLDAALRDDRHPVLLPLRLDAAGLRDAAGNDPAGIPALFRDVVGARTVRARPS

Take `CCCCCCC#CCC(=O)SCCNC(C)=O` [compound 6, 3-Decynoyl-N-acetylcysteamine]: the KI (inactivation) worked out at 156 ± 34 µM.
